The source of these data is patent publication US9056891B2, “Synthetic peptide inhibitors of Wnt pathway” (The United States of America, as represented by the …, priority 2010, dated 2015).

One assay relates to 4T1 cells. The assay is described as follows: Toxicity (growth inhibition) for 4T1 cells. Format: cell-based, mouse. The method, then: To identify a mouse model for preclinical development of compounds, mouse cell lines were tested for (1) growth inhibition by the compounds and (2) the levels of constitutive Wnt signaling TCF-reporter activity using transfection of cell with TCF/LEF-responsive firefly luciferase construct. The data further confirmed that sensitivity to compounds correlated well with the levels of canonical Wnt signaling.
Based on the data, mouse breast cancer cell line 4T1 was selected for in vivo testing.
(§1) Further optimization and testing of inhibitors was performed using this cell line. Table 5 presents toxicity data for select inhibitors for 4T1 cells and human colon cancer cell line SW-480, wherein GI50 is the concentration providing 50% growth inhibition and TGI is the total growth inhibition.

The test system of the next assay is SW480 cells. The experiment in a line: Toxicity (growth inhibition) for SW-480 cells. Set-up: unit not given here. Format: cell-based, human. The method, then:
as §1

The next assay deals with HCT-116 cells. Format: cell-based, human. Conditions: 48 h. The method, then: (§2) HeLa, U3A, RKO, HCT-116, and HT-29 cells were exposed to the CT-HC-1, CT-HC-3, CT-HC-5, and CT-HC-8 inhibitors of Example 1 for 48 hours in medium containing 1% bovine fetal serum, and the resulting cell number was evaluated using a MTT assay. Each of these cell lines is relevant to the evaluation of Wnt signaling. Cervical carcinoma HeLa cells overexpress β-catenin (see, e.g., Lee et al., Int. J. Cancer, 124(2): 287-297 (2009); and Lee et al., Gynecol. Oncol., 109(2): 270-274 (2008)). β-catenin is activated in colon carcinoma RKO due to mutation in CDX2 (see, e.g., Dang et al., Oncogene, 20(35): 4884-4890 (2001)). Colon adenocarcinoma HCT116 has elevated mutated β-catenin; however, it was found in the past to be resistant to down regulation of β-catenin (see, e.g., Chan et al., Proc. Natl. Acad. Sci. USA, 99(12): 8265-8270 (2002); and Handeli et al., Mol. Cancer Ther., 7(3): 521-529 (2008)). Colon carcinoma HT-29 has truncated adenomatous polyposis coli (APC) protein, which is a common cause of canonical Wnt pathway activation in colon malignancies. Fibrosarcoma U3A cells are STAT1-negative and have uncharacterized status of Wnt pathway.
(§3) The ability of CT-HC-1 to inhibit growth and to kill cancer cells at different concentrations was further investigated in HeLa, U3A, RKO, HCT-116, and HT-29 cells. The cells were stained with Promega Non-Radioactive Cell Proliferation Assay Kit (MTT) according to the manufacture's protocol. The absorbance of the wells was determined at 544 nm by a FLUOstar/POLARstar Galaxy (BMG Lab Technologies GmbH) Microplate Reader. The assays were performed on control (C) and test (T) cells. Untreated cells were used as a control. Cellular responses were calculated from the data using the following formula: 100×[(T−T0)/(C−T0)] for T>T0 and 100×[(T−T0)/T0] for T<T0. T0 corresponds to cell density at the time of drug addition.

The subject of assay [1] is RKO, HT-29, HCT-116, SW-480, and SW-620 cells. The assay is described as follows: Cell viability of colon cancer cells (FIGS. 2A-C). Format: cell-based. The settings on record: increasing concentrations, HT-29, HCT-116, SW-480, SW-620. As to the method:
The concentration (μM) of the peptide inhibitor is indicated on the x-axis and the percent viability is indicated on the y-axis.
A similar experiment was performed using RKO, HT-29, HCT-116, SW-480, and SW-620 cells. Colorectal adenocarcinoma SW-480 and SW-620 cells have truncated APC protein, which—as discussed above—is a common cause of canonical Wnt pathway activation in colon malignancies.

The next assay relates to RKO cells. Format: cell-based. Conditions: 48 h. As to the method:
as §2, §3

A further assay concerns HeLa cells. Format: cell-based. Conditions: 48 h. As to the method: as §2, §3
The next assay concerns HT-29 cells. Format: cell-based. The settings on record: 48 h. As to the method:
as §2, §3

In the next assay the test system is U3A cells. Format: cell-based. Conditions: 48 h. The method, then:
as §2, §3

Another assay deals with 4T1 breast cancer. The experiment in a line: 4T1 breast cancer mouse model. Format: in vivo. The settings on record: 2 mg/kg subcutaneously three times a week, alone, after three injections. As to the method: CT-HC-11 has been tested in 4T1 breast cancer mouse model at two doses: 10 and 2 mg/kg injected subcutaneously three times a week alone or in combination with weekly gemcitabine (75 mg/kg).

*1 amine or outer side, *2 acyl side, *3 side chain or, on linkers, in order; H or OH if unused. Where a SMILES comes first, the peptide text is derived from it. Bridges are numbered along the chain shown (N, C = ends). Where no end group is shown, it is not given here. [ ]: non-standard residue; d: D form. The star is where a group is joined. X1 = CCCCCCCCCCCCC(C)(N[*:1])C(=O)[*:2]; Palmitoyl = CCCCCCCCCCCCCCCC(=O)*; Aib = CC(C)(N)C(=O)O

With Cap-TRFLSSTLQVSLRKK-NH2 [CT-HC-22], the 4T1 cells TGI (total growth inhibition) with 4T1 cells was > 5 µM.
For “Pal-Aib-YKKRLSVQLTSSLFR (Palmitoyl-[Aib]YKKRLSVQLTSSLFR) [CT-HC-19]”, in the assay on 4T1 cells, the 4T1 cells TGI (total growth inhibition) is > 5 µM.
Consider “Pal-YKKRLSVELTSSLFR (Palmitoyl-YKKRLSVELTSSLFR) [CT-HC-12]”, for which the 4T1 cells TGI (total growth inhibition) in the assay on 4T1 cells was > 5 µM. The “SW480 cells TGI (total growth inhibition)” value in the assay on SW480 cells was >5.
With Pal-RFLSSTLQVSLRKK-NH2 [CT-HC-20], the 4T1 cells TGI (total growth inhibition) in the assay with 4T1 cells is > 5 µM.
What is called GI50 is the concentration at which growth is held to half of that of the control. As to `CCCCCCCCCCCCCCCC(=O)NCCCC[C@H](N)C(=O)N[C@@H](Cc1ccc(O)cc1)C(=O)N[C@@H](CCCCN)C(=O)N[C@@H](CCCCN)C(=O)N[C@@H](CCCNC(=N)N)C(=O)N[C@@H](CC(C)C)C(=O)N[C@@H](CO)C(=O)N[C@H](C(=O)N[C@@H](CCC(N)=O)C(=O)N[C@@H](CC(C)C)C(=O)N[C@H](C(=O)N[C@@H](CO)C(=O)N[C@@H](CO)C(=O)N[C@@H](CC(C)C)C(=O)N[C@@H](Cc1ccccc1)C(=O)N[C@@H](CCCNC(=N)N)C(=O)O)[C@@H](C)O)C(C)C` [CT-HC-3, Pal-ε-KYKKRLSVQLTSSLFR] (H-K(Palmitoyl)YKKRLSVQLTSSLFR-OH; N-terminus and C-terminus assumed), the 4T1 cells TGI (total growth inhibition) in the assay with 4T1 cells is > 5 µM. Besides, the GI50 in the assay with HCT-116 cells is 4 ± 0.3 µM; with RKO cells it was 1800 ± 150 nM; in the assay with HeLa cells it was 800 ± 80 nM; in the assay with HT-29 cells it was 2800 ± 100 nM; in the assay on U3A cells, 650 ± 45 nM. Further, in assay [1], the cell viability result was “decreased viability”. Moreover, the “SW480 cells TGI (total growth inhibition)” value in the assay with SW480 cells is 0.5.
Lau-TRFLSSTLQVSLRKK-NH2 [CT-HC-23] had a 4T1 cells TGI (total growth inhibition) in the assay with 4T1 cells of 3.5 µM.
In the assay on 4T1 cells, Pal-Aib-TRFLSSTLQVSLRKK-NH2 [CT-HC-11] came in with a 4T1 cells TGI (total growth inhibition) of 3 µM. Moreover, the tumor volume entry in the assay with 4T1 breast cancer is “significant reduction in tumor volume”.
For Pal-TRFLSSTLEVSLRKKY-NH2 [CT-HC-10], the 4T1 cells TGI (total growth inhibition) with 4T1 cells worked out at 2 µM. The “SW480 cells TGI (total growth inhibition)” value with SW480 cells amounted to 2.2.
Regarding “Pal-Aib-YKKRLSVELTSSLFR (Palmitoyl-[Aib]YKKRLSVELTSSLFR) [CT-HC-13]”, in the assay on 4T1 cells, the 4T1 cells TGI (total growth inhibition) was > 5 µM.
Consider Pal-NKPQDYKKRLSVELTSSLFR [CT-HC-2], for which the 4T1 cells TGI (total growth inhibition) with 4T1 cells is > 5 µM. In the assay with SW480 cells, the “SW480 cells TGI (total growth inhibition)” value is reported as >5.
On to `CCCCCCCCCCCCC(C)(N)C(=O)N[C@@H](Cc1ccc(O)cc1)C(=O)N[C@@H](CCCCN)C(=O)N[C@@H](CCCCN)C(=O)N[C@@H](CCCNC(=N)N)C(=O)N[C@@H](CC(C)C)C(=O)N[C@@H](CO)C(=O)N[C@H](C(=O)N[C@@H](CCC(=O)O)C(=O)N[C@@H](CC(C)C)C(=O)N[C@H](C(=O)N[C@@H](CO)C(=O)N[C@@H](CO)C(=O)N[C@@H](CC(C)C)C(=O)N[C@@H](Cc1ccccc1)C(=O)N[C@@H](CCCNC(=N)N)C(=O)O)[C@@H](C)O)C(C)C` (stereo partly shown) [CT-HC-8, Doa-YKKRLSVELTSSLFR] (H-[X1]YKKRLSVELTSSLFR-OH; N-terminus and C-terminus assumed), for which the 4T1 cells TGI (total growth inhibition) with 4T1 cells was > 5 µM. Moreover, the GI50 was > 5 µM in the assay on HCT-116 cells; > 5000 nM in the assay on RKO cells; 3200 ± 400 nM with HeLa cells; > 5000 nM in the assay with HT-29 cells; > 5000 nM in the assay on U3A cells. Besides, in [1], the cell viability result is given as “decreased viability”. The “SW480 cells TGI (total growth inhibition)” value with SW480 cells stood at 0.4.
Take “Pal-YKKRLSVELTSSLFRTEPMAW (Palmitoyl-YKKRLSVELTSSLFRTEPMAW) [CT-HC-16]”: the 4T1 cells TGI (total growth inhibition) in the assay with 4T1 cells is > 5 µM. Besides, in the assay with SW480 cells, the “SW480 cells TGI (total growth inhibition)” value is on record as >5.
As to “Ac-YKKRLS+ELT+SLFR (Ac-YKKRLSXELTXSLFR; staple 7-11; not fully specified (residues 7, 11); printed as Ac-YKKRLS+ELT+SLFR) [CT-HC-9]”, in the assay on 4T1 cells, the 4T1 cells TGI (total growth inhibition) is > 5 µM. Also, the “SW480 cells TGI (total growth inhibition)” value in the assay on SW480 cells was >5.
For Pal-TRFLSSTLQVSLRKK-NH2 [CT-HC-15], the 4T1 cells TGI (total growth inhibition) in the assay on 4T1 cells was 3.6 µM.
